In US10196369B2, “Spirocyclic EBI2 modulators” (Sanford Burnham Prebys Medical Discovery Institute, priority 2013, dated 2019):

Molecular target: EBI2 (Homo sapiens, UniProt P32249)
Test: Cell-based luminescent assay of EBI2 modulation (7a,25-OHC stimulated)
Details: 7a,25-OHC final assay concentration 80 nM, 60 minute incubation
Protocol: To assess EBI2 modulation, the compounds described herein were assayed in the following cell-based luminescent assay:
1) Plated 600 cells/well in 4 μL of assay media into columns 1-48 of a 1536-well assay plate, using a liquid dispenser.
2) Centrifuged plates at 1000 rpm for 1 minute and covered with lids.
3) Incubated overnight at 37° C., 100% relative humidity, 5% CO2.
1) Centrifuged compound plates containing compounds described herein at 500 rpm for 1 minute.
2) Added compounds into assay plate col 5-48 to final concentration 4-5 uM. Added matching amount of DMSO to positive and negative control wells in columns 1-4.
3) Dispensed 2 uL/well of assay media to columns 1-2 for the positive control wells.
4) Added 2 uL/well of 400 nM 7a,25-OHC (final assay concentration=80 nM) in assay media to columns 3-48 for the negative control and test compound wells.
5) Centrifuged plates at 1000 rpm for 1 minute and re-lid plates.
6) Incubated plates at 37° C., 100% relative humidity, 5% CO2 for 60 minutes.
7) Following 60 minute incubation, delivered 2.5 uL of Detection Reagent solution to each assay plate (Columns 1-48) using a liquid handler.
8) Centrifuged plates at 2000 rpm for 2 minutes and re-lid plates.
9) Incubated plates for 60 minutes at 25 degrees in the dark.
10) Read plates using the Viewlux, Envision or other suitable plate reader using a luminescence detection.
The experimental values were normalized by the difference between values from neutral and stimulator control wells in each plate. Then normalized data was corrected to remove systematic plate patterns due to artifacts such as dispensing tip issues etc.

Chain of EBI2 (P32249 whole entry): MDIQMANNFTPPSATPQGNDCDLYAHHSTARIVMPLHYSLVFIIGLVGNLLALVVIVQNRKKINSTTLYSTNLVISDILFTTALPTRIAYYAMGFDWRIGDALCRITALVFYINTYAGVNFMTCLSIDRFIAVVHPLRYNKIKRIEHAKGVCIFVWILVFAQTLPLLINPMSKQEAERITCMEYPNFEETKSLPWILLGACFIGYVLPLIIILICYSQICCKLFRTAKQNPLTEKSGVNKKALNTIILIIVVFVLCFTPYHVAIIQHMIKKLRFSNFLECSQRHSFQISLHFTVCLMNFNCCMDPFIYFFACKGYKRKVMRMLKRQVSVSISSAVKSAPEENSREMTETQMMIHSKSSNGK

Compound	IC50
O=C(/C=C/c1ccc(Br)cc1)N1CCC2(CC1)CN(C(=O)/C=C/c1ccc(Br)cc1)C2 [Compound C1, (2E)-1-{7-[(2E)-3-(4-bromophenyl)prop-2-enoyl]-2,7-diazaspiro[3.5]non-2-yl}-3-(4-bromophenyl)prop-2-en-1-one]	< 100 nM
O=C(c1ccc(F)cc1)N1CCC2(CC1)CN(C(=O)c1cc3cc(Cl)ccc3[nH]1)C2 [Compound C38, 5-chloroindol-2-yl 7-[(4-fluorophenyl)carbonyl]-2,7-diazaspiro[3.5]non-2-yl ketone]	100 to 500 nM
O=C(c1cc2cc(Br)ccc2[nH]1)N1CC2(CCN(Cc3ccc(F)cc3C(F)(F)F)CC2)C1 [Compound C60, 5-bromoindol-2-yl 7-{[4-fluoro-2-(trifluoromethyl)phenyl]methyl}-2,7-diazaspiro[3.5]non-2-yl ketone]	500 to 5000 nM
O=C(c1cc2cc(Cl)ccc2[nH]1)N1CCC2(CC1)CN(Cc1ccc(F)cc1)C2 [Compound C17, 5-chloroindol-2-yl 2-[(4-fluorophenyl)methyl]-2,7-diazaspiro[3.5]non-7-yl ketone]	< 100 nM
O=C(c1ccc(F)cc1)N1CCC2(CC1)CN(C(=O)c1cc3ccc(Cl)cc3[nH]1)C2 [Compound C55, 6-chloroindol-2-yl 7-[(4-fluorophenyl)carbonyl]-2,7-diazaspiro[3.5]non-2-yl ketone]	500 to 5000 nM
O=C(/C=C/c1ccc(Br)cc1)N1CCC2(CC1)CN(C(=O)c1ccc(F)cc1)C2 [Compound C53, (2E)-3-(4-bromophenyl)-1-{2-[(4-fluorophenyl)carbonyl]-2,7-diazaspiro[3.5]non-7-yl}prop-2-en-1-one]	< 100 nM
O=C(/C=C/c1ccc(Br)cc1)N1CCC2(CC1)CN(C(=O)c1cc(Cl)cc(Cl)c1)C2 [Compound C10, (2E)-1-{2-[(3,5-dichlorophenyl)carbonyl]-2,7-diazaspiro[3.5]non-7-yl}-3-(4-bromophenyl)prop-2-en-1-one]	< 100 nM
N#Cc1ccc(C(=O)N2CCC3(CC2)CN(C(=O)/C=C/c2ccc(Br)cc2)C3)cc1F [Compound C43, 4-({2-[(2E)-3-(4-bromophenyl)prop-2-enoyl]-2,7-diazaspiro[3.5]non-7-yl}carbonyl)-2-fluorobenzenecarbonitrile]	< 100 nM
O=C(/C=C/c1ccc(Br)cc1)N1CCC2(CC1)CN(Cc1c(Cl)cccc1Cl)C2 [Compound C11, (2E)-1-{2-[(2,6-dichlorophenyl)methyl]-2,7-diazaspiro[3.5]non-7-yl}-3-(4-bromophenyl)prop-2-en-1-one]	< 100 nM
O=C(C#Cc1ccc(F)cc1)N1CCC2(CC1)CN(C(=O)c1ccc(Cl)cc1)C2 [Compound C87, 1-{2-[(4-chlorophenyl)carbonyl]-2,7-diazaspiro[3.5]non-7-yl}-3-(4-fluorophenyl)prop-2-yn-1-one]	< 100 nM
O=C(/C=C/c1ccc(Cl)c(Cl)c1)N1CC2(CCN(Cc3ccc(Cl)cc3)CC2)C1 [Compound C33, (2E)-3-(3,4-dichlorophenyl)-1-{7-[(4-chlorophenyl)methyl]-2,7-diazaspiro[3.5]non-2-yl}prop-2-en-1-one]	100 to 500 nM
O=C(C#Cc1ccc(Cl)cc1)N1CC2(CCN(C(=O)c3ccc(C(F)(F)F)cc3)CC2)C1 [Compound C80, 3-(4-chlorophenyl)-1-(7-{[4-(trifluoromethyl)phenyl]carbonyl}-2,7-diazaspiro[3.5]non-2-yl)prop-2-yn-1-one]	< 100 nM
O=C(/C=C/c1ccc(Cl)c(Cl)c1)N1CC2(CCN(C(=O)c3ccc(C(F)(F)F)cc3)CC2)C1 [Compound C30, (2E)-3-(3,4-dichlorophenyl)-1-(7-{[4-(trifluoromethyl)phenyl]carbonyl}-2,7-diazaspiro[3.5]non-2-yl)prop-2-en-1-one]	< 100 nM
O=C(c1ccc(Cl)cc1)N1CCC2(CC1)CN(C(=O)c1cc3ccc(Cl)cc3[nH]1)C2 [Compound C56, 6-chloroindol-2-yl 7-[(4-chlorophenyl)carbonyl]-2,7-diazaspiro[3.5]non-2-yl ketone]	500 to 5000 nM
O=C(C#Cc1ccc(Cl)cc1)N1CC2(CCN(Cc3ccc(F)cc3)CC2)C1 [Compound C81, 3-(4-chlorophenyl)-1-{7-[(4-fluorophenyl)methyl]-2,7-diazaspiro[3.5]non-2-yl}prop-2-yn-1-one]	100 to 500 nM
O=C(c1cc2cc(Cl)ccc2[nH]1)N1CCC2(CC1)CN(Cc1ccc(C(F)(F)F)c(F)c1)C2 [Compound C14, 5-chloroindol-2-yl 2-{[3-fluoro-4-(trifluoromethyl)phenyl]methyl}-2,7-diazaspiro[3.5]non-7-yl ketone]	100 to 500 nM

Compound	IC50
O=C(c1cc2ccc(Br)cc2[nH]1)N1CC2(CCN(Cc3ccc(C(F)(F)F)cc3)CC2)C1 [Compound C63, 6-bromoindol-2-yl 7-{[4-(trifluoromethyl)phenyl]methyl}-2,7-diazaspiro[3.5]non-2-yl ketone]	500 to 5000 nM
O=C(/C=C/c1ccc(Br)cc1)N1CC2(CCN(C(=O)c3ccc(F)cc3C(F)(F)F)CC2)C1 [Compound C45, (2E)-3-(4-bromophenyl)-1-(7-{[4-fluoro-2-(trifluoromethyl)phenyl]carbonyl}-2,7-diazaspiro[3.5]non-2-yl)prop-2-en-1-one]	< 100 nM
COc1ccc(C(=O)N2CC3(CCN(C(=O)C#Cc4ccc(Br)cc4)CC3)C2)cc1 [Compound C74, 3-(4-bromophenyl)-1-{2-[(4-methoxyphenyl)carbonyl]-2,7-diazaspiro[3.5]non-7-yl}prop-2-yn-1-one]	< 100 nM
O=C(/C=C/c1ccc(Br)cc1)N1CC2(CCN(Cc3ccc(Cl)cc3)CC2)C1 [Compound C26, (2E)-3-(4-bromophenyl)-1-{7-[(4-chlorophenyl)methyl]-2,7-diazaspiro[3.5]non-2-yl}prop-2-en-1-one]	100 to 500 nM
COc1ccc(C(=O)N2CCC3(CC2)CN(C(=O)C#Cc2ccc(F)cc2)C3)cc1 [Compound C92, 3-(4-fluorophenyl)-1-{7-[(4-methoxyphenyl)carbonyl]-2,7-diazaspiro[3.5]non-2-yl}prop-2-yn-1-one]	100 to 500 nM
O=C(C#Cc1ccc(F)cc1)N1CC2(CCN(C(=O)c3ccc(C(F)(F)F)cc3)CC2)C1 [Compound C96, 3-(4-fluorophenyl)-1-(7-{[4-(trifluoromethyl)phenyl]carbonyl}-2,7-diazaspiro[3.5]non-2-yl)prop-2-yn-1-one]	< 100 nM
O=C(C#Cc1ccc(Cl)cc1)N1CC2(CCN(C(=O)c3ccc(Cl)cc3)CC2)C1 [Compound C84, 3-(4-chlorophenyl)-1-{7-[(4-chlorophenyl)carbonyl]-2,7-diazaspiro[3.5]non-2-yl}prop-2-yn-1-one]	< 100 nM
O=C(c1ccc(C(F)(F)F)cc1)N1CCC2(CC1)CN(C(=O)c1cc3ccc(Br)cc3[nH]1)C2 [Compound C58, 6-bromoindol-2-yl 7-{[4-(trifluoromethyl)phenyl]carbonyl}-2,7-diazaspiro[3.5]non-2-yl ketone]	500 to 5000 nM
COc1ccc(CN2CC3(CCN(C(=O)C#Cc4ccc(Br)cc4)CC3)C2)cc1 [Compound C75, 3-(4-bromophenyl)-1-{2-[(4-methoxyphenyl)methyl]-2,7-diazaspiro[3.5]non-7-yl}prop-2-yn-1-one]	100 to 500 nM
O=C(c1cc2cc(Cl)ccc2[nH]1)N1CCC2(CC1)CN(Cc1ccc(C(F)(F)F)cc1)C2 [Compound C15, 5-chloroindol-2-yl 2-{[4-(trifluoromethyl)phenyl]methyl}-2,7-diazaspiro[3.5]non-7-yl ketone]	100 to 500 nM
COc1ccc(C(=O)N2CC3(CCN(C(=O)C#Cc4ccc(F)cc4)CC3)C2)cc1 [Compound C89, 3-(4-fluorophenyl)-1-{2-[(4-methoxyphenyl)carbonyl]-2,7-diazaspiro[3.5]non-7-yl}prop-2-yn-1-one]	100 to 500 nM
O=C(/C=C/c1ccc(Cl)c(Cl)c1)N1CC2(CCN(C(=O)c3ccc(-c4nnn[nH]4)cc3)CC2)C1 [Compound C31, (2E)-3-(3,4-dichlorophenyl)-1-{7-[(4-(1H-1,2,3,4-tetraazol-5-yl)phenyl)carbonyl]-2,7-diazaspiro[3.5]non-2-yl}prop-2-en-1-one]	500 to 5000 nM
Cc1cccc(C(=O)N2CC3(CCN(C(=O)/C=C/c4ccc(Br)cc4)CC3)C2)c1 [Compound C12, (2E)-3-(4-bromophenyl)-1-{2-[(3-methylphenyl)carbonyl]-2,7-diazaspiro[3.5]non-7-yl}prop-2-en-1-one]	< 100 nM
bromophenyl)-1-{2-[(4-bromophenyl)carbonyl]-2,7-diazaspiro[3.5]non-7-yl}prop-2-yn-1-one [Compound C66]	100 to 500 nM
O=C(c1cc2ccc(Br)cc2[nH]1)N1CC2(CCN(C(=O)c3ccc(F)cc3C(F)(F)F)CC2)C1 [Compound C61, 6-bromoindol-2-yl 7-{[4-fluoro-2-(trifluoromethyl)phenyl]carbonyl}-2,7-diazaspiro[3.5]non-2-yl ketone]	100 to 500 nM
O=C(C#Cc1ccc2c(c1)OCO2)N1CCC2(CC1)CN(C(=O)c1ccc(Br)cc1)C2 [Compound I1, 3-(2H-benzo[3,4-d]1,3-dioxolen-5-yl)-1-{2-[(4-bromophenyl)carbonyl]-2,7-diazaspiro[3.5]non-7-yl}prop-2-yn-1-one]	500 to 5000 nM
